{"source": "paper PMC12090182", "about": "“Repurposing of the RIPK1-Selective Benzo[1,4]oxazepin-4-one Scaffold for the Development of a Type III LIMK1/2 Inhibitor” (ACS Chemical Biology, 2025)", "tested_on": "MRC-9 cells", "experiment": "Multiplex high-content viability assessment", "assay_type": "cell-based", "settings": "1 µM, human fibroblast", "description": "To assess the influence on cell health, a high-content screening in living cells called the multiplex high-content assay, as described previously by Tjaden et al., was performed.[38] In brief, HEK293T (ATCC CRL-1573) and U2OS (ATCCHTB-96) were cultured in DMEM plus L-glutamine (high glucose) supplemented by 10% FBS (Gibco) and penicillin/streptomycin (Gibco). MRC-9 fibroblasts ([…]) were cultured in EMEM plus L-glutamine supplemented by 10% FBS (Gibco) and penicillin/streptomycin (Gibco). Cells were seeded at a density of 1250 cells per well in a 384-well plate in a culture medium (cell culture microplate, PS, f-bottom, μClear, 781091, Greiner), with a volume of 50 μL per well. All outer wells were filled with 100 μL of PBS buffer (Gibco). […] The cell shape and fluorescence were measured before treatment and 12, 24, and 48 h after compound treatment using the CQ1 high-content confocal microscope (Yokogawa, Musashino, Japan). […] The compounds were tested at 1 and 10 μM, respectively. Acquired images of the cells were processed using Yokogawa CellPathfinder software (v3.04.02.02). […] Results were normalized to cells exposed to 0.1% DMSO. All compounds were tested in biological duplicates, and SEM (standard error of mean) was calculated of biological duplicates.", "data": [{"smiles": "CC(C)C(=O)Nc1ncc(-c2cc(C(F)F)nn2-c2c(Cl)cccc2Cl)s1", "note": "[LIMKi3]", "values": [{"measurement": "Cell count normalized to cells treated with DMSO control", "setting": "0 h, biological replicate 1", "result": 1.034}, {"measurement": "Cell count per well", "setting": "0 h, biological replicate 1", "result": 155}, {"measurement": "Population Fragmented Nuclei (%)", "setting": "0 h, biological replicate 1", "result": 25.33, "unit": "%"}, {"measurement": "Population Healthy Nuclei (%)", "setting": "0 h, biological replicate 1", "result": 53.33, "unit": "%"}, {"measurement": "Population Pyknosed Nuclei (%)", "setting": "0 h, biological replicate 1", "result": 21.33, "unit": "%"}, {"measurement": "Population apoptotic cell (%)", "setting": "0 h, biological replicate 1", "result": 34.38, "unit": "%"}, {"measurement": "Population cell that influence microtubule strucutre (%)", "setting": "0 h, biological replicate 1", "result": 18.75, "unit": "%"}, {"measurement": "Population with increased mitochondrial mass (%)", "setting": "0 h, biological replicate 1", "result": 7.50, "unit": "%"}, {"measurement": "Population with membrane disruption (%)", "setting": "0 h, biological replicate 1", "result": 1.25, "unit": "%"}, {"measurement": "Cell count normalized to cells treated with DMSO control", "setting": "0 h, biological replicate 2", "result": 0.869}, {"measurement": "Cell count per well", "setting": "0 h, biological replicate 2", "result": 155}, {"measurement": "Population Fragmented Nuclei (%)", "setting": "0 h, biological replicate 2", "result": 31.13, "unit": "%"}, {"measurement": "Population Healthy Nuclei (%)", "setting": "0 h, biological replicate 2", "result": 41.06, "unit": "%"}, {"measurement": "Population Pyknosed Nuclei (%)", "setting": "0 h, biological replicate 2", "result": 27.81, "unit": "%"}, {"measurement": "Population apoptotic cell (%)", "setting": "0 h, biological replicate 2", "result": 38.10, "unit": "%"}, {"measurement": "Population cell that influence microtubule strucutre (%)", "setting": "0 h, biological replicate 2", "result": 48.39, "unit": "%"}, {"measurement": "Population with increased mitochondrial mass (%)", "setting": "0 h, biological replicate 2", "result": 11.29, "unit": "%"}, {"measurement": "Population with membrane disruption (%)", "setting": "0 h, biological replicate 2", "result": 8.06, "unit": "%"}, {"measurement": "Cell count normalized to cells treated with DMSO control", "setting": "12 h, biological replicate 1", "result": 0.9165}, {"measurement": "Cell count per well", "setting": "12 h, biological replicate 1", "result": 138}, {"measurement": "Population Fragmented Nuclei (%)", "setting": "12 h, biological replicate 1", "result": 20.00, "unit": "%"}, {"measurement": "Population Healthy Nuclei (%)", "setting": "12 h, biological replicate 1", "result": 63.70, "unit": "%"}, {"measurement": "Population Pyknosed Nuclei (%)", "setting": "12 h, biological replicate 1", "result": 16.30, "unit": "%"}, {"measurement": "Population apoptotic cell (%)", "setting": "12 h, biological replicate 1", "result": 22.73, "unit": "%"}, {"measurement": "Population cell that influence microtubule strucutre (%)", "setting": "12 h, biological replicate 1", "result": 25.58, "unit": "%"}, {"measurement": "Population with increased mitochondrial mass (%)", "setting": "12 h, biological replicate 1", "result": 5.81, "unit": "%"}, {"measurement": "Population with membrane disruption (%)", "setting": "12 h, biological replicate 1", "result": 1.16, "unit": "%"}, {"measurement": "Cell count normalized to cells treated with DMSO control", "setting": "12 h, biological replicate 2", "result": 0.8765}, {"measurement": "Cell count per well", "setting": "12 h, biological replicate 2", "result": 146}, {"measurement": "Population Fragmented Nuclei (%)", "setting": "12 h, biological replicate 2", "result": 30.94, "unit": "%"}, {"measurement": "Population Healthy Nuclei (%)", "setting": "12 h, biological replicate 2", "result": 44.60, "unit": "%"}, {"measurement": "Population Pyknosed Nuclei (%)", "setting": "12 h, biological replicate 2", "result": 24.46, "unit": "%"}, {"measurement": "Population apoptotic cell (%)", "setting": "12 h, biological replicate 2", "result": 35.29, "unit": "%"}, {"measurement": "Population cell that influence microtubule strucutre (%)", "setting": "12 h, biological replicate 2", "result": 75.81, "unit": "%"}, {"measurement": "Population with increased mitochondrial mass (%)", "setting": "12 h, biological replicate 2", "result": 11.29, "unit": "%"}, {"measurement": "Population with membrane disruption (%)", "setting": "12 h, biological replicate 2", "result": 20.97, "unit": "%"}, {"measurement": "Cell count normalized to cells treated with DMSO control", "setting": "24 h, biological replicate 1", "result": 0.9351}, {"measurement": "Cell count per well", "setting": "24 h, biological replicate 1", "result": 141}, {"measurement": "Population Fragmented Nuclei (%)", "setting": "24 h, biological replicate 1", "result": 15.83, "unit": "%"}, {"measurement": "Population Healthy Nuclei (%)", "setting": "24 h, biological replicate 1", "result": 69.06, "unit": "%"}, {"measurement": "Population Pyknosed Nuclei (%)", "setting": "24 h, biological replicate 1", "result": 15.11, "unit": "%"}, {"measurement": "Population apoptotic cell (%)", "setting": "24 h, biological replicate 1", "result": 33.33, "unit": "%"}, {"measurement": "Population cell that influence microtubule strucutre (%)", "setting": "24 h, biological replicate 1", "result": 33.33, "unit": "%"}, {"measurement": "Population with increased mitochondrial mass (%)", "setting": "24 h, biological replicate 1", "result": 7.29, "unit": "%"}, {"measurement": "Population with membrane disruption (%)", "setting": "24 h, biological replicate 1", "result": 0.00, "unit": "%"}, {"measurement": "Cell count normalized to cells treated with DMSO control", "setting": "24 h, biological replicate 2", "result": 0.8553}, {"measurement": "Cell count per well", "setting": "24 h, biological replicate 2", "result": 141}, {"measurement": "Population Fragmented Nuclei (%)", "setting": "24 h, biological replicate 2", "result": 38.85, "unit": "%"}, {"measurement": "Population Healthy Nuclei (%)", "setting": "24 h, biological replicate 2", "result": 41.73, "unit": "%"}, {"measurement": "Population Pyknosed Nuclei (%)", "setting": "24 h, biological replicate 2", "result": 19.42, "unit": "%"}, {"measurement": "Population apoptotic cell (%)", "setting": "24 h, biological replicate 2", "result": 40.74, "unit": "%"}, {"measurement": "Population cell that influence microtubule strucutre (%)", "setting": "24 h, biological replicate 2", "result": 62.07, "unit": "%"}, {"measurement": "Population with increased mitochondrial mass (%)", "setting": "24 h, biological replicate 2", "result": 12.07, "unit": "%"}, {"measurement": "Population with membrane disruption (%)", "setting": "24 h, biological replicate 2", "result": 20.69, "unit": "%"}, {"measurement": "Cell count normalized to cells treated with DMSO control", "setting": "48 h, biological replicate 1", "result": 0.9887}, {"measurement": "Cell count per well", "setting": "48 h, biological replicate 1", "result": 150}, {"measurement": "Population Fragmented Nuclei (%)", "setting": "48 h, biological replicate 1", "result": 26.21, "unit": "%"}, {"measurement": "Population Healthy Nuclei (%)", "setting": "48 h, biological replicate 1", "result": 62.07, "unit": "%"}, {"measurement": "Population Pyknosed Nuclei (%)", "setting": "48 h, biological replicate 1", "result": 11.72, "unit": "%"}, {"measurement": "Population apoptotic cell (%)", "setting": "48 h, biological replicate 1", "result": 52.94, "unit": "%"}, {"measurement": "Population cell that influence microtubule strucutre (%)", "setting": "48 h, biological replicate 1", "result": 31.11, "unit": "%"}, {"measurement": "Population with increased mitochondrial mass (%)", "setting": "48 h, biological replicate 1", "result": 6.67, "unit": "%"}, {"measurement": "Population with membrane disruption (%)", "setting": "48 h, biological replicate 1", "result": 0.00, "unit": "%"}, {"measurement": "Cell count normalized to cells treated with DMSO control", "setting": "48 h, biological replicate 2", "result": 0.8351}, {"measurement": "Cell count per well", "setting": "48 h, biological replicate 2", "result": 136}, {"measurement": "Population Fragmented Nuclei (%)", "setting": "48 h, biological replicate 2", "result": 42.54, "unit": "%"}, {"measurement": "Population Healthy Nuclei (%)", "setting": "48 h, biological replicate 2", "result": 45.52, "unit": "%"}, {"measurement": "Population Pyknosed Nuclei (%)", "setting": "48 h, biological replicate 2", "result": 11.94, "unit": "%"}, {"measurement": "Population apoptotic cell (%)", "setting": "48 h, biological replicate 2", "result": 37.50, "unit": "%"}, {"measurement": "Population cell that influence microtubule strucutre (%)", "setting": "48 h, biological replicate 2", "result": 77.05, "unit": "%"}, {"measurement": "Population with increased mitochondrial mass (%)", "setting": "48 h, biological replicate 2", "result": 14.75, "unit": "%"}, {"measurement": "Population with membrane disruption (%)", "setting": "48 h, biological replicate 2", "result": 9.84, "unit": "%"}]}]}
